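Step 1: Grow cells in 96-well plates. Step 2: Expose to compound for 48 hours at 5 concentrations. Step 3: Interpolate endpoints linearly; if unreached, use highest concentration. At the TGI there is no net growth.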

Data on 11 molecules can be found in PubChem BioAssay (NCI).

One assay has as its system SN12C renal. Put plainly: inhibition of tumour cell growth, NCI panel, 48 h.
`Cc1ccc(-c2c3c(n(C4OC(CO)C(O)C(O)C4O)c(=S)c2C#N)CC(C)(C)CC3=O)cc1` (centres undefined): the TGI is > 100 µM.
With `COc1ccc(C(OCC2OC(n3cc(C)c(=O)[nH]c3=O)CC2n2cc(Cn3cc(Br)c(=O)[nH]c3=O)nn2)(c2ccccc2)c2ccccc2)cc1` (centres undefined), the TGI was > 100 µM.
Still for that read-out and setting: then `CC(NNC(=O)CC(=O)N(C(=O)c1ccccc1)c1ccc(Cl)cc1)c1cc2ccccc2oc1=O` (centres undefined), with > 10 µM.
Molecule `CC(C)(C)c1cc(C(=O)/C=C/C=C/c2ccccc2)cc(C(C)(C)C)c1O` displayed a TGI of 77.3 µM.
Regarding `O=[N+]([O-])c1ccc(S(=O)(=O)N=Ic2ccccc2)cc1`, the TGI is > 100 µM.
In the case of `O=C(O)CCN(CCC(=O)O)c1ccc(/C=C2\SC(=S)NC2=O)cc1`, the TGI is > 100 µM.
With `O=C(NS(=O)(=O)OCC(Cl)(Cl)Cl)SCCC(F)(F)C(F)(F)C(F)(F)C(F)(F)C(F)(F)C(F)(F)F`, the TGI was > 100 µM.
On the same count and under the same terms, the figure for `S=c1[nH]n2c(COc3cccc(OCc4nnc5sc(=S)[nH]n45)c3)nnc2s1` is > 100 µM; for `Cc1cn(CCCCCOC(=O)NC(CCCN=C(N)N)C(=O)O)c(=O)[nH]c1=O` (centres undefined) it is > 100 µM; for `COc1ccc(C(=O)/C=C/c2ccncc2)cc1OC` it is 29.2 µM.
Still for that read-out and setting: then `CC(C)(C)NC(=O)N1N=C(c2ccccc2)C1c1ccccc1` (centres undefined), with > 100 µM.

A further assay deals with MOLT-4 leukemia. The assay can be described thus: inhibition of tumour cell growth, NCI panel, 48 h.
Consider `Cc1ccc(-c2c3c(n(C4OC(CO)C(O)C(O)C4O)c(=S)c2C#N)CC(C)(C)CC3=O)cc1` (centres undefined), for which the TGI was > 100 µM.
Turning to `COc1ccc(C(OCC2OC(n3cc(C)c(=O)[nH]c3=O)CC2n2cc(Cn3cc(Br)c(=O)[nH]c3=O)nn2)(c2ccccc2)c2ccccc2)cc1` (centres undefined), the TGI is > 100 µM.
The same measure, in the same setting: then `CC(NNC(=O)CC(=O)N(C(=O)c1ccccc1)c1ccc(Cl)cc1)c1cc2ccccc2oc1=O` (centres undefined), with > 10 µM; and `CC(C)(C)c1cc(C(=O)/C=C/C=C/c2ccccc2)cc(C(C)(C)C)c1O`, with > 63.1 µM; and `O=[N+]([O-])c1ccc(S(=O)(=O)N=Ic2ccccc2)cc1`, with > 100 µM.
Same read-out and setting: the figure for `O=C(O)CCN(CCC(=O)O)c1ccc(/C=C2\SC(=S)NC2=O)cc1` is > 100 µM.
The same measure, in the same setting: then `O=C(NS(=O)(=O)OCC(Cl)(Cl)Cl)SCCC(F)(F)C(F)(F)C(F)(F)C(F)(F)C(F)(F)C(F)(F)F`, with 80 µM; and `S=c1[nH]n2c(COc3cccc(OCc4nnc5sc(=S)[nH]n45)c3)nnc2s1`, with > 100 µM.
On to `Cc1cn(CCCCCOC(=O)NC(CCCN=C(N)N)C(=O)O)c(=O)[nH]c1=O` (centres undefined), for which the TGI was > 100 µM.
The molecule `COc1ccc(C(=O)/C=C/c2ccncc2)cc1OC` came in with a TGI of 86.7 µM.

The subject of a further assay is DU-145 prostate. Put plainly: inhibition of tumour cell growth, NCI panel, 48 h.
In the case of `Cc1ccc(-c2c3c(n(C4OC(CO)C(O)C(O)C4O)c(=S)c2C#N)CC(C)(C)CC3=O)cc1` (centres undefined), the TGI is > 100 µM.
The same measure, in the same setting: then `COc1ccc(C(OCC2OC(n3cc(C)c(=O)[nH]c3=O)CC2n2cc(Cn3cc(Br)c(=O)[nH]c3=O)nn2)(c2ccccc2)c2ccccc2)cc1` (centres undefined), with > 100 µM; and `CC(NNC(=O)CC(=O)N(C(=O)c1ccccc1)c1ccc(Cl)cc1)c1cc2ccccc2oc1=O` (centres undefined), with > 10 µM; and `CC(C)(C)c1cc(C(=O)/C=C/C=C/c2ccccc2)cc(C(C)(C)C)c1O`, with 98.1 µM.
On the same count and under the same terms, then `O=[N+]([O-])c1ccc(S(=O)(=O)N=Ic2ccccc2)cc1`, with > 100 µM; and `O=C(O)CCN(CCC(=O)O)c1ccc(/C=C2\SC(=S)NC2=O)cc1`, with > 100 µM; and `O=C(NS(=O)(=O)OCC(Cl)(Cl)Cl)SCCC(F)(F)C(F)(F)C(F)(F)C(F)(F)C(F)(F)C(F)(F)F`, with > 100 µM.
Still for that read-out and setting: the figure for `S=c1[nH]n2c(COc3cccc(OCc4nnc5sc(=S)[nH]n45)c3)nnc2s1` is > 100 µM; for `Cc1cn(CCCCCOC(=O)NC(CCCN=C(N)N)C(=O)O)c(=O)[nH]c1=O` (centres undefined) it is > 100 µM; for `COc1ccc(C(=O)/C=C/c2ccncc2)cc1OC` it is 31.6 µM.
For `CC(C)(C)NC(=O)N1N=C(c2ccccc2)C1c1ccccc1` (centres undefined), the TGI is > 100 µM.

Another assay has as its system SF-268 CNS. The assay can be described thus: inhibition of tumour cell growth, NCI panel, 48 h.
Take `Cc1ccc(-c2c3c(n(C4OC(CO)C(O)C(O)C4O)c(=S)c2C#N)CC(C)(C)CC3=O)cc1` (centres undefined): the TGI was > 100 µM.
The same measure, in the same setting: the figure for `COc1ccc(C(OCC2OC(n3cc(C)c(=O)[nH]c3=O)CC2n2cc(Cn3cc(Br)c(=O)[nH]c3=O)nn2)(c2ccccc2)c2ccccc2)cc1` (centres undefined) is > 100 µM; for `CC(NNC(=O)CC(=O)N(C(=O)c1ccccc1)c1ccc(Cl)cc1)c1cc2ccccc2oc1=O` (centres undefined) it is > 10 µM; for `CC(C)(C)c1cc(C(=O)/C=C/C=C/c2ccccc2)cc(C(C)(C)C)c1O` it is > 74 µM.
Regarding `O=[N+]([O-])c1ccc(S(=O)(=O)N=Ic2ccccc2)cc1`, the TGI is > 100 µM.
Still for that read-out and setting: then `O=C(O)CCN(CCC(=O)O)c1ccc(/C=C2\SC(=S)NC2=O)cc1`, with > 100 µM.
Turning to `O=C(NS(=O)(=O)OCC(Cl)(Cl)Cl)SCCC(F)(F)C(F)(F)C(F)(F)C(F)(F)C(F)(F)C(F)(F)F`, the TGI is > 100 µM.
Regarding `S=c1[nH]n2c(COc3cccc(OCc4nnc5sc(=S)[nH]n45)c3)nnc2s1`, the TGI is > 100 µM.
In the case of `Cc1cn(CCCCCOC(=O)NC(CCCN=C(N)N)C(=O)O)c(=O)[nH]c1=O` (centres undefined), the TGI was > 100 µM.
`COc1ccc(C(=O)/C=C/c2ccncc2)cc1OC` registered a TGI of 30.5 µM.
Consider `CC(C)(C)NC(=O)N1N=C(c2ccccc2)C1c1ccccc1` (centres undefined), for which the TGI was > 100 µM.

For a further assay, the system named is IGROV1 ovarian. The assay can be described thus: inhibition of tumour cell growth, NCI panel, 48 h.
Consider `Cc1ccc(-c2c3c(n(C4OC(CO)C(O)C(O)C4O)c(=S)c2C#N)CC(C)(C)CC3=O)cc1` (centres undefined), for which the TGI was > 100 µM.
The same measure, in the same setting: then `COc1ccc(C(OCC2OC(n3cc(C)c(=O)[nH]c3=O)CC2n2cc(Cn3cc(Br)c(=O)[nH]c3=O)nn2)(c2ccccc2)c2ccccc2)cc1` (centres undefined), with > 100 µM; and `CC(NNC(=O)CC(=O)N(C(=O)c1ccccc1)c1ccc(Cl)cc1)c1cc2ccccc2oc1=O` (centres undefined), with > 10 µM; and `CC(C)(C)c1cc(C(=O)/C=C/C=C/c2ccccc2)cc(C(C)(C)C)c1O`, with > 100 µM.
Turning to `O=[N+]([O-])c1ccc(S(=O)(=O)N=Ic2ccccc2)cc1`, the TGI was > 100 µM.
As to `O=C(O)CCN(CCC(=O)O)c1ccc(/C=C2\SC(=S)NC2=O)cc1`, the TGI is > 100 µM.
The same measure, in the same setting: the figure for `O=C(NS(=O)(=O)OCC(Cl)(Cl)Cl)SCCC(F)(F)C(F)(F)C(F)(F)C(F)(F)C(F)(F)C(F)(F)F` is > 100 µM.
On the same count and under the same terms, then `S=c1[nH]n2c(COc3cccc(OCc4nnc5sc(=S)[nH]n45)c3)nnc2s1`, with > 100 µM; and `Cc1cn(CCCCCOC(=O)NC(CCCN=C(N)N)C(=O)O)c(=O)[nH]c1=O` (centres undefined), with > 100 µM; and `COc1ccc(C(=O)/C=C/c2ccncc2)cc1OC`, with 26.6 µM.
Same read-out and setting: the figure for `CC(C)(C)NC(=O)N1N=C(c2ccccc2)C1c1ccccc1` (centres undefined) is > 100 µM.
